# According to patent publication US11154544B2, “Amide derivatives as Nav1.7 and Nav1.8 blockers” (RaQualia Pharma Inc., priority 2017, dated 2021):
# Biological target: Nav1.7 (Homo sapiens (Human), UniProt Q15858)
# Test: EFS-FRET assay
# Format: cell-based
# Details: EFS-FRET, CHO cells expressing human Nav1.7; read-out: IC50 against Nav1.7
# Method: This screen is used to determine the effects of compounds on human Nav1.7 channels, utilizing electrical field stimulation (EFS) system in 96-well plate format on FDSS (Hamamatsu Photonics) platform. The change of membrane potential is monitored with FRET dye pair, DiSBAC2(3) and PTS 18.
# CHO (Chinese hamster ovary) cells expressing human Nav1.7 channels are grown in T225 flasks, in a 5% CO2 humidified incubator to about 80% confluence. Media composition consists of HAM/F^.12 with Glutamax I, 10% FCS, 100 units/mL penicillin and 100 microgram/mL hygromycin.
# Seed each cell lines (1×10^5 cells/well) into 96-well plates prior to experimentation.
# Incubate at 37° C. in 5% CO2, for 24 hours.
# Wash each well with assay buffer (140 mM NaCl, […], 10 mM D-Glucose, 2 mM CaCl2, 1 mM MgCl2, 10 mM HEPES, pH 7.4 adjusted with NaOH) twice.
# Add 1st loading solution containing 10 microM PTS18 and 0.06% Pluronic F-127 in assay buffer.
# Incubate the plate at rt in dark for 1 hour. • Remove 1st loading solution and add 2nd loading solution containing 12.5 microM DiSBAC2(3), 1.25 mM Xylene Fast Yellow and 0.0075% Pluronic F-127 in assay buffer. • Place the plate under the dark at rt for 25 minutes. • Add compound solutions into the assay plate. • Set the assay plate in FDSS and place an EFS device on the plate. • Measure EFS-induced fluorescent response by FDSS.
# The data are analyzed and reported as normalized ratios of intensities measured at […]. The process of calculating these ratios is performed as follows:
# This analysis is performed using a computerized specific program designed for
# FDSS generated data. Fluorescence ratio values are plotted using XLfit to determine an IC50 value for each, compound.
# Nav1.7, sequence (Q15858 whole entry): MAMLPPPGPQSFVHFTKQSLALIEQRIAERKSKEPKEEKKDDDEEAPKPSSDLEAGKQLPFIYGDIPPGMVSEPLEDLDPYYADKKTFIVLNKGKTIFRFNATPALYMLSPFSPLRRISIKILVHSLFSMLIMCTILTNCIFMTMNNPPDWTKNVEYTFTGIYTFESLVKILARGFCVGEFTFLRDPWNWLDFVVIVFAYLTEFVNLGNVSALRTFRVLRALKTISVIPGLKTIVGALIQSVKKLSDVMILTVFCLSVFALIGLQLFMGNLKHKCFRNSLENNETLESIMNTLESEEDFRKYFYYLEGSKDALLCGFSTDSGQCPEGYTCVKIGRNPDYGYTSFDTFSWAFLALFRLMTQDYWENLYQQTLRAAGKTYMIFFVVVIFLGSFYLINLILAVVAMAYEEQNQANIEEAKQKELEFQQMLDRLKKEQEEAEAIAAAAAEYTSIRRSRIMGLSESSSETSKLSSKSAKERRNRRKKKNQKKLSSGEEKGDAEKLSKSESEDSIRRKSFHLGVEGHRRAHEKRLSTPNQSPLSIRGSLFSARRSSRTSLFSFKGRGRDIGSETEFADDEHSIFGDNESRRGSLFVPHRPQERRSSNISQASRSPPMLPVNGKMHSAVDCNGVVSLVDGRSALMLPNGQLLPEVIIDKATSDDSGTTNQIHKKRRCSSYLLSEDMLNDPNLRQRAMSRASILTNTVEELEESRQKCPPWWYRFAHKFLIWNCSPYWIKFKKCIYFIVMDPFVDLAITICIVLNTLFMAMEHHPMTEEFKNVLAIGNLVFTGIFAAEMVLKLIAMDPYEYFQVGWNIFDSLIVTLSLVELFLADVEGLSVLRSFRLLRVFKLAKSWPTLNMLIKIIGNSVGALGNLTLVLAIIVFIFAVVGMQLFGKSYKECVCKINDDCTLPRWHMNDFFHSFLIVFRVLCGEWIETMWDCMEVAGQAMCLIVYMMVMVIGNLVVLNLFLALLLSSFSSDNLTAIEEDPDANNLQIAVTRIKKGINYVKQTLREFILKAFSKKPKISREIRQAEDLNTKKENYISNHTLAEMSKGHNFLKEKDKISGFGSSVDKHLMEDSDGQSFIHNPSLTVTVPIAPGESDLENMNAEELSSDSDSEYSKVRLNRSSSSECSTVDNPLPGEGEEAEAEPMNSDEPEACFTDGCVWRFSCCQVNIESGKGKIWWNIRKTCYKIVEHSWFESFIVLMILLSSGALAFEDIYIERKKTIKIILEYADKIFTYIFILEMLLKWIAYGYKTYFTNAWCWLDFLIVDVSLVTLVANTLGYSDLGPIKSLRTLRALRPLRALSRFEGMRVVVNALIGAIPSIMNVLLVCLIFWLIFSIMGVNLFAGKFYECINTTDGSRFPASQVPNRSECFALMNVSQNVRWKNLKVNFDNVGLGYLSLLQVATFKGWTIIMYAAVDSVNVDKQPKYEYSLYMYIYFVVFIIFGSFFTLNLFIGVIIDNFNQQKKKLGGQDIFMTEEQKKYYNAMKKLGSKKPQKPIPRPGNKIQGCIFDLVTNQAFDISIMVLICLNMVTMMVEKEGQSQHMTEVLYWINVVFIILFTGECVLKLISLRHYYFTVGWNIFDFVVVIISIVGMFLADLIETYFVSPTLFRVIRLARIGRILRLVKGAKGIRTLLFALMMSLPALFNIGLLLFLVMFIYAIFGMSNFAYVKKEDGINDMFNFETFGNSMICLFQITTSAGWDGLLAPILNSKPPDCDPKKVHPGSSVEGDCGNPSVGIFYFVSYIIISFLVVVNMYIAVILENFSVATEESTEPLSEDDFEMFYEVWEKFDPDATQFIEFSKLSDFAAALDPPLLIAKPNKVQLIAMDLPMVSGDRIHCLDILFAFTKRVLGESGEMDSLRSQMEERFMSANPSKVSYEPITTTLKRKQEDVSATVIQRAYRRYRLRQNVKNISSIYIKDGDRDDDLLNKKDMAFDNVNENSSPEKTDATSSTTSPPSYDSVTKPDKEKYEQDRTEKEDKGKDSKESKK
row,Structure (SMILES),IC50
1,CC(=O)Nc1cc(C(=O)NCCOc2ncc(C(F)(F)F)cc2Cl)cc(C)n1 [Example 10],< 500 nM
2,O=C(NCCOc1ncc(C(F)(F)F)cc1Cl)c1ccnc(NC(=O)C2CC2)n1 [Example 36],< 500 nM
3,COc1cc(C(F)(F)F)ccc1OCCNC(=O)c1ccnc(NC(=O)C2CC2)c1 [Example 130],< 500 nM
4,O=C(NCCOc1ccc(S(F)(F)(F)(F)F)cc1)c1ccnc(NC(=O)C2CC2)c1 [Example 33],< 500 nM
5,CCC(=O)Nc1cc(C(=O)NCCCNc2ncc(C(F)(F)F)cc2Cl)ccn1 [Example 119],< 500 nM
6,Cc1cc(C(=O)NCCOc2ccc(OC(F)(F)F)cc2Cl)cc(NC(=O)C(C)C)n1 [Example 108],< 500 nM
7,Cc1cc(C(=O)NCCOc2ccc3cc(C(F)(F)F)ccc3n2)cc(NC(=O)C2CC2)n1 [Example 59],< 500 nM
8,CCC(=O)Nc1cc(C(=O)NCCOc2ccc(OC(F)(F)F)cc2Cl)cc(C)n1 [Example 105],< 500 nM
9,CC(=O)Nc1cc(C(=O)NCCOc2cccc(OC(F)(F)F)c2)cc(C)n1 [Example 19],< 500 nM
10,CCC(=O)Nc1cc(C(=O)NCCOc2ncc(C(F)(F)F)cc2Cl)cc(C)n1 [Example 15],< 500 nM
11,CC(=O)Nc1cc(C(=O)NCCOc2ccc(C(F)(F)F)cc2C)cc(C)n1 [Example 140],< 500 nM
12,O=C(NCCOc1ccc(C(F)(F)F)cc1Cl)c1ccnc(NC(=O)C2CC2)n1 [Example 43],< 500 nM
13,Cc1cc(C(=O)N[C@H](C)COc2ncc(C(F)(F)F)cc2Cl)cc(NC(=O)C2CC2)n1 [Example 69],< 500 nM
14,CCC(=O)Nc1cc(C(=O)NCCOc2ccc(C(F)(F)F)cn2)cc(C)n1 [Example 12],< 500 nM
15,CCC(=O)Nc1cc(C(=O)NCCCc2ncc(C(F)(F)F)cc2Cl)ccn1 [Example 30],< 500 nM
16,CCC(=O)Nc1cc(C(=O)NCCOc2ccc3cc(OCC(F)(F)F)ccc3c2)cc(C)n1 [Example 49],< 500 nM
17,CCC(=O)Nc1cc(C(=O)NCCOc2ccc(C(F)(F)F)cc2OC)ccn1 [Example 127],< 500 nM
18,CC(C)C(=O)Nc1cc(C(=O)NCCOc2ccc(C(F)(F)F)cc2F)ccn1 [Example 96],< 500 nM
19,CCC(=O)Nc1nc(C)cc(C(=O)NCCOc2ncc(C(F)(F)F)cc2Cl)n1 [Example 89],< 500 nM
20,Cc1cc(C(=O)NCCOc2ncc(C(F)(F)F)cc2Cl)nc(NC(=O)C(C)C)n1 [Example 90],< 500 nM
21,Cc1cc(C(=O)NC[C@@H](C)Oc2ncc(C(F)(F)F)cc2Cl)cc(NC(=O)C2CC2)n1 [Example 76],< 500 nM
22,CC(=O)Nc1cc(C(=O)NCCOc2ccc(OC(F)(F)F)cc2Cl)ccn1 [Example 113],< 500 nM
23,CC(=O)Nc1cc(C(=O)NCCOc2ccc(OC(F)(F)F)c(F)c2)cc(C)n1 [Example 152],< 500 nM
24,Cc1cc(C(=O)NCCOc2ncc(C(F)(F)F)cc2Cl)cc(NC(=O)C2CC2)n1 [Example 25],< 500 nM
25,CCC(=O)Nc1cc(C(=O)NCCOc2ccc(C(F)(F)F)cc2OC)cc(C)n1 [Example 129],< 500 nM

row,Structure (SMILES),IC50
1,Cc1cc(C(F)(F)F)ccc1OCCNC(=O)c1ccnc(NC(=O)C2CC2)n1 [Example 146],< 500 nM
2,"O=C(NCCOc1ncc(C(F)(F)F)cc1Cl)c1cccnc1C(F)(F)F [No. 1-63, reference compound]",> 3000 nM
3,COc1cc(C(F)(F)F)ccc1OCCNC(=O)c1cc(C)nc(NC(=O)C(C)C)c1 [Example 133],< 500 nM
4,O=C(NCCOc1ccc(OC(F)(F)F)c(F)c1)c1ccnc(NC(=O)C2CC2)c1 [Example 151],< 500 nM
5,CC(=O)Nc1cc(C(=O)NCCSc2ncc(C(F)(F)F)cc2Cl)cc(C)n1 [Example 54],< 500 nM
6,CC(C)C(=O)Nc1cc(C(=O)N[C@H](C)COc2ncc(C(F)(F)F)cc2Cl)ccn1 [Example 68],< 500 nM
7,O=C(NCCNc1ncc(C(F)(F)F)cc1Cl)c1ccnc(NC(=O)C2CC2)n1 [Example 38],< 500 nM
8,Cc1cc(C(=O)NCCOc2ccc3cc(C(F)(F)F)ccc3n2)cc(NC(=O)C(C)C)n1 [Example 60],< 500 nM
9,Cc1cc(C(=O)N[C@H](C)COc2ncc(C(F)(F)F)cc2Cl)cc(NC(=O)C(C)C)n1 [Example 70],< 500 nM
10,CC(=O)Nc1cc(C(=O)NCCOc2ccc(S(F)(F)(F)(F)F)cc2)cc(C)n1 [Example 31],< 500 nM
11,CC(C)C(=O)Nc1cc(C(=O)NCCCOc2ncc(C(F)(F)F)cc2Cl)ccn1 [Example 123],< 500 nM
12,Cc1cc(C(=O)NCCOc2ccc(OC(F)(F)F)cc2Cl)cc(NC(=O)C2CC2)n1 [Example 115],< 500 nM
13,CCC(=O)Nc1cc(C(=O)NCCNc2ncc(C(F)(F)F)cc2Cl)cc(C)n1 [Example 5],< 500 nM
14,Cc1cc(C(=O)NCCOc2ccc(C(F)(F)F)cc2C)cc(NC(=O)C(C)C)n1 [Example 145],< 500 nM
15,CCC(=O)Nc1cc(C(=O)NCCOc2ccc3cc(C(F)(F)F)ccc3n2)ccn1 [Example 57],< 500 nM
16,Cc1cc(C(=O)NC[C@@H](C)Oc2ncc(C(F)(F)F)cc2Cl)cc(NC(=O)C(C)C)n1 [Example 77],< 500 nM
17,CCC(=O)Nc1cc(C(=O)NCCOc2ccc(C(F)(F)F)cc2Cl)ccn1 [Example 21],< 500 nM
18,CCC(=O)Nc1cc(C(=O)NCCOc2ncc(C(F)(F)F)cc2Cl)ccn1 [Example 9],< 500 nM
19,CCCC(=O)Nc1cc(C(=O)NCCOc2ncc(C(F)(F)F)cc2Cl)ccn1 [Example 87],< 500 nM
20,CC(=O)Nc1cc(C(=O)NCCOc2ccc(C(F)(F)F)cc2Cl)cc(C)n1 [Example 23],< 500 nM
21,CC(C)C(=O)Nc1cc(C(=O)NCCOc2ccc(OC(F)(F)F)c(F)c2)ccn1 [Example 149],< 500 nM
22,Cc1cc(C(=O)NCCNc2ncc(C(F)(F)F)cc2Cl)cc(NC(=O)C2CC2)n1 [Example 26],< 500 nM
23,CCC(=O)Nc1cc(C(=O)NCCOc2ccc(C(F)(F)F)cc2F)cc(C)n1 [Example 94],< 500 nM
24,CCC(=O)Nc1cc(C(=O)NCCOc2ccc(C(F)(F)F)cc2Cl)cc(C)n1 [Example 39],< 500 nM
25,COc1cc(C(F)(F)F)ccc1OCCNC(=O)c1cc(C)nc(NC(C)=O)c1 [Example 128],< 500 nM

row,Structure (SMILES),IC50
1,CCC(=O)Nc1cc(C(=O)NCCOc2ccc(C(F)(F)F)cc2C)ccn1 [Example 139],< 500 nM
2,COc1cc(C(F)(F)F)ccc1OCCNC(=O)c1ccnc(NC(=O)C2CC2)n1 [Example 134],< 500 nM
3,O=C(NCCNc1ncc(C(F)(F)F)cc1Cl)c1ccnc(NC(=O)C2CC2)c1 [Example 6],< 500 nM
4,CC(=O)Nc1cc(C(=O)NC[C@@H](C)Oc2ncc(C(F)(F)F)cc2Cl)cc(C)n1 [Example 73],< 500 nM
5,CC(=O)Nc1cc(C(=O)NCCOc2ccc(C(F)(F)F)cc2C)ccn1 [Example 138],< 500 nM
6,CC(C)C(=O)Nc1cc(C(=O)NCCOc2ccc(OC(F)(F)F)cc2Cl)ccn1 [Example 107],< 500 nM
7,CC(=O)Nc1cc(C(=O)NCCOc2ccc3cc(C(F)(F)F)ccc3n2)cc(C)n1 [Example 58],< 500 nM
8,Cc1cc(C(F)(F)F)ccc1OCCNC(=O)c1ccnc(NC(=O)C(C)C)c1 [Example 143],< 500 nM
9,CC(C)C(=O)Nc1cc(C(=O)NCCOc2ccc(C(F)(F)F)cc2Cl)ccn1 [Example 22],< 500 nM
10,Cc1cc(C(=O)NCCOc2ccc(C(F)(F)F)cc2Cl)cc(NC(=O)C(C)C)n1 [Example 42],< 500 nM
11,CC(=O)Nc1cc(C(=O)NCCOc2ccc(OC(F)(F)F)c(F)c2)ccn1 [Example 154],< 500 nM
12,CC(=O)Nc1cc(C(=O)NCCOc2ccc(C(F)(F)F)cc2F)cc(C)n1 [Example 93],< 500 nM
13,CCC(=O)Nc1cc(C(=O)NCCOc2ccc(OC(F)(F)F)cc2Cl)ccn1 [Example 114],< 500 nM
14,CC(=O)Nc1cc(C(=O)NCCOc2ccc3cc(C(F)(F)F)ccc3n2)ccn1 [Example 56],< 500 nM
15,O=C(NCCOc1ccc(OC(F)(F)F)c(F)c1)c1ccnc(NC(=O)C2CC2)n1 [Example 150],< 500 nM
16,CC(C)C(=O)Nc1cc(C(=O)NCCOc2ccnc3cc(C(F)(F)F)ccc23)ccn1 [Example 80],< 500 nM
17,CC(C)C(=O)Nc1cc(C(=O)NCCNc2ncc(C(F)(F)F)cc2Cl)ccn1 [Example 7],< 500 nM
18,CCC(=O)Nc1cc(C(=O)NC[C@@H](C)Oc2ncc(C(F)(F)F)cc2Cl)cc(C)n1 [Example 74],< 500 nM
19,O=C(NCCOc1ccc(OC(F)(F)F)cc1Cl)c1ccnc(NC(=O)C2CC2)c1 [Example 117],< 500 nM
20,O=C(NCCOc1ncc(C(F)(F)F)cc1Cl)c1ccnc(NC(=O)C2CC2)c1 [Example 14],< 500 nM
21,"O=C(NCCOc1ncc(C(F)(F)F)cc1Cl)c1ncccc1Cl [No. 1-3, reference compound]",> 3000 nM
22,COc1cc(C(F)(F)F)ccc1OCCNC(=O)c1ccnc(NC(=O)C(C)C)c1 [Example 131],< 500 nM
23,Cc1cc(C(=O)NCCOc2ncc(C(F)(F)F)cc2Cl)nc(NC(=O)C2CC2)n1 [Example 16],< 500 nM

# Same assay, conditions: Table 1; read-out: Nav1.7 activity (IC50)
row,Structure (SMILES),IC50
1,"O=C(NCCOc1ncc(C(F)(F)F)cc1Cl)c1cccnc1C(F)(F)F [No. 1-63, reference compound]",> 3000 nM
2,"O=C(NCCOc1ncc(C(F)(F)F)cc1Cl)c1ncccc1Cl [No. 1-3, reference compound]",> 3000 nM
